# Experimental data as given in ChEMBL document CHEMBL1201862, “PubChem BioAssay data set” (2004).
#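 A five-concentration, 48-hour dose response in 96-well plates underlies each endpoint, interpolated linearly between surrounding concentrations. At the GI50, growth is halved.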 Active and inactive are the calls of the source. Rule as the data show it: active = GI50 up to about 1.1 µM and inactive = higher.
# Columns and labels:
# Assay in all cases: DTP human tumour cell line panel, 48 h
# HOP-62 = system: HOP-62
# M14 = system: M14
# DU-145 = system: DU-145
# COLO 205 = system: COLO 205
# HCT-15 = system: HCT-15
# SK-MEL-5 = system: SK-MEL-5
# T47D = system: T47D
# CAKI-1 = system: CAKI-1
# OVCAR-5 = system: OVCAR-5
# OVCAR-8 = system: OVCAR-8
# HL-60 = system: HL-60
# NCI-H23 = system: NCI-H23
# SNB-75 = system: SNB-75
# NCI-H460 = system: NCI-H460
# IGROV-1 = system: IGROV-1
# RXF 393 = system: RXF 393
# UO-31 = system: UO-31
# MDA-MB-231 = system: MDA-MB-231
# SK-MEL-28 = system: SK-MEL-28
SMILES,GI50 (HOP-62),GI50 (M14),GI50 (DU-145),GI50 (COLO 205),GI50 (HCT-15),GI50 (SK-MEL-5),GI50 (T47D),GI50 (CAKI-1),GI50 (OVCAR-5),GI50 (OVCAR-8),GI50 (HL-60),GI50 (NCI-H23),GI50 (SNB-75),GI50 (NCI-H460),GI50 (IGROV-1),GI50 (RXF 393),GI50 (UO-31),GI50 (MDA-MB-231),GI50 (SK-MEL-28)
COP(=O)(CC(=O)C1OC(OCc2ccccc2)C(OCc2ccccc2)C(OCc2ccccc2)C1OCc1ccccc1)OC (configuration not stated),20.1 µM (inactive),10.9 µM (inactive),22 µM (inactive),3.78 µM (inactive),4.83 µM,4.23 µM (inactive),4.3 µM (inactive),4.7 µM (inactive),17.6 µM (inactive),5.87 µM (inactive),4.39 µM (inactive),8.47 µM (inactive),7.76 µM (inactive),4.24 µM (inactive),13.3 µM (inactive),2.62 µM (inactive),2.94 µM (inactive),10.2 µM (inactive),54 µM (inactive)
CN1CCN(c2nc3c(c(=O)n(C)c(=O)n3C)n2C)CC1,> 100 µM (inactive),> 100 µM (inactive),> 100 µM (inactive),> 100 µM (inactive),> 100 µM,> 100 µM (inactive),> 100 µM (inactive),> 100 µM (inactive),> 100 µM (inactive),> 100 µM (inactive),> 100 µM (inactive),> 100 µM (inactive),> 100 µM (inactive),> 100 µM (inactive),> 100 µM (inactive),> 100 µM (inactive),> 100 µM (inactive),> 100 µM (inactive),> 100 µM (inactive)
Cc1c(S(=O)(=O)/N=C(\NN)Nc2ccc(Cl)cc2)sc2ccc(Cl)cc12,18.7 µM (inactive),20.5 µM (inactive),16.9 µM (inactive),16.3 µM (inactive),16.6 µM,17.1 µM (inactive),10.2 µM (inactive),19 µM (inactive),14.4 µM (inactive),16.8 µM (inactive),32.4 µM (inactive),17.7 µM (inactive),14.8 µM (inactive),16.6 µM (inactive),15.2 µM (inactive),11.1 µM (inactive),19 µM (inactive),16.5 µM (inactive),20.6 µM (inactive)
C[As](C)SCC(NC(=O)CCC(N)C(=O)O)C(=O)NCC(=O)O.c1ccncc1 (configuration not stated),0.885 µM (active),0.22 µM (active),0.0867 µM (active),0.105 µM (active),0.0702 µM,0.0966 µM (active),0.0938 µM (active),0.0662 µM (active),0.436 µM (active),0.231 µM (active),0.0578 µM (active),0.284 µM (active),2.7 µM (inactive),2.38 µM (inactive),1.42 µM (inactive),0.0471 µM (active),0.182 µM (active),0.261 µM (active),0.421 µM (active)
COc1nc(N=P(c2ccccc2)(c2ccccc2)c2ccccc2)cc(=O)[nH]1,> 100 µM (inactive),> 100 µM (inactive),> 100 µM (inactive),> 100 µM (inactive),> 100 µM,> 100 µM (inactive),> 100 µM (inactive),> 100 µM (inactive),> 100 µM (inactive),> 100 µM (inactive),> 100 µM (inactive),> 100 µM (inactive),> 100 µM (inactive),> 100 µM (inactive),> 100 µM (inactive),> 100 µM (inactive),> 100 µM (inactive),> 100 µM (inactive),> 100 µM (inactive)
O=C(O)c1cc(/N=N/c2ccc([N+](=O)[O-])cc2)ccc1O,40.6 µM (inactive),39.4 µM (inactive),38.3 µM (inactive),30.8 µM (inactive),31.8 µM,34.6 µM (inactive),42.6 µM (inactive),29.2 µM (inactive),30.3 µM (inactive),33.4 µM (inactive),29 µM (inactive),40.2 µM (inactive),38.7 µM (inactive),28.2 µM (inactive),40.2 µM (inactive),42.3 µM (inactive),16.6 µM (inactive),26.9 µM (inactive),37.7 µM (inactive)
O=C(c1cc(Cl)cc(Cl)c1)N1CCN(C(=O)c2cc(Cl)cc(Cl)c2)C1=S,14.8 µM (inactive),13.2 µM (inactive),9.18 µM (inactive),15.9 µM (inactive),12.6 µM,16.1 µM (inactive),7.06 µM (inactive),11.9 µM (inactive),20.6 µM (inactive),18.6 µM (inactive),3.31 µM (inactive),17.4 µM (inactive),14.1 µM (inactive),16.6 µM (inactive),14.1 µM (inactive),11.8 µM (inactive),2.31 µM (inactive),15.7 µM (inactive),23.2 µM (inactive)
O=c1c(Cc2ccccc2Cc2c(O)oc3ccccc3c2=O)c(O)oc2ccccc12,> 100 µM (inactive),> 100 µM (inactive),> 100 µM (inactive),> 100 µM (inactive),> 100 µM,> 100 µM (inactive),> 100 µM (inactive),> 100 µM (inactive),> 100 µM (inactive),> 100 µM (inactive),> 100 µM (inactive),> 100 µM (inactive),31.6 µM (inactive),> 100 µM (inactive),> 100 µM (inactive),> 100 µM (inactive),> 100 µM (inactive),> 100 µM (inactive),> 100 µM (inactive)
